Experimental data from patent publication US20060069132A1, “Azolecarboxamide herbicides” (priority 2004, published 2006).
Read-outs that look alike come from different tables or passages of the source.

Columns and labels:
large crabgrass = assay: Test B pre-/postemergence herbicide test; type: in vivo, Digitaria sanguinalis; conditions: for pest or weed control at 500 g/ha: 500 g ai/ha
Procedure, shortened: (§1)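 Pre: seeds sown, then sprayed. Post: 1–4-leaf plants (2–18 cm) sprayed at the same time. Paddy: flooded, treated at 2-leaf stage. Formulation: non-phytotoxic solvent with surfactant. Greenhouse 13–15 days; visual 0–100 score relative to controls.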

blackgrass = assay: Test B postemergence herbicide test; type: in vivo, Alopecurus myosuroides; conditions: Alopecurus myosuroides, post-emergence, 336 h, read-out: Blackgrass plant response rating
Procedure, shortened: (§2)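 Plants grow to 1- to 4-leaf stage (2–18 cm) for postemergence spraying, or to 2-leaf stage for the paddy test. Formulated compound is applied. Greenhouse holding lasts 13–15 days. Response is scored visually relative to controls, 0 no effect to 100 complete control; a dash means no result.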

[1] = system: small flower umbrella sedge; assay: Test B flooded paddy test; type: in vivo, Cyperus difformis; conditions: Cyperus difformis, 336 h, 1000 g ai/ha, scale 0 to 100 (0 no effect, 100 complete control), read-out: Sedge, Umbrella plant response rating
Procedure, shortened: as §2

rice = assay: Test B flooded paddy test; type: in vivo, Oryza sativa; conditions: Oryza sativa, 336 h, 1000 g ai/ha, scale 0 to 100 (0 no effect, 100 complete control), read-out: Rice plant response rating
Procedure, shortened: as §2

corn = assay: Test B pre-/postemergence herbicide test; type: in vivo, Zea mays
Procedure, shortened: as §1

wheat = assay: Test B postemergence herbicide test; type: in vivo, Triticum aestivum; conditions: Triticum aestivum, post-emergence, 336 h, read-out: Wheat plant response rating
Procedure, shortened: as §2

wild oat = assay: Test B postemergence herbicide test; type: in vivo, Avena fatua; conditions: Avena fatua, post-emergence, 336 h, read-out: Oat, Wild plant response rating
Procedure, shortened: as §2

velvetleaf = assay: Test B pre-/postemergence herbicide test; type: in vivo, Abutilon theophrasti
Procedure, shortened: as §1

barnyardgrass = assay: Test B flooded paddy test; type: in vivo, Echinochloa crus-galli; conditions: Echinochloa crus-galli, 336 h, 1000 g ai/ha, scale 0 to 100 (0 no effect, 100 complete control), read-out: Barnyardgrass plant response rating
Procedure, shortened: as §2

Surinam grass = assay: Test B pre-/postemergence herbicide test; type: in vivo, Urochloa decumbens; conditions: for pest or weed control at 500 g/ha: 500 g ai/ha
Procedure, shortened: as §1

cocklebur = assay: Test B pre-/postemergence herbicide test; type: in vivo, Xanthium strumarium; conditions: for pest or weed control at 500 g/ha: 500 g ai/ha
Procedure, shortened: (§3)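 Species tested were Echinochloa crus-galli, Ipomoea coccinea, Xanthium strumarium and Oryza sativa, treated both before emergence and at the 1- to 4-leaf stage; rice and barnyardgrass were also tested under flooding at 2 leaves. Greenhouse incubation lasted 13–15 days before visual 0–100 scoring.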

lambsquarters = assay: Test B pre-/postemergence herbicide test; type: in vivo, Chenopodium album; conditions: for pest or weed control at 500 g/ha: 500 g ai/ha
Procedure, shortened: as §1

morningglory = assay: Test B pre-/postemergence herbicide test; type: in vivo, Ipomoea coccinea; conditions: for pest or weed control at 500 g/ha: 500 g ai/ha
Procedure, shortened: as §3

pigweed = assay: Test B pre-/postemergence herbicide test; type: in vivo, Amaranthus retroflexus; conditions: for pest or weed control at 500 g/ha: 500 g ai/ha
Procedure, shortened: as §1

giant foxtail = assay: Test B pre-/postemergence herbicide test; type: in vivo, Setaria faberi; conditions: for pest or weed control at 500 g/ha: 500 g ai/ha
Procedure, shortened: as §1

[2] = 125 g ai/ha, 0 is no effect, 100 is complete control, preemergence
[3] = 125 g ai/ha, visual rating, scale 0 (no effect) to 100 (complete control)
[4] = postemergence, 500 g ai/ha, scale 0 to 100, 0 is no effect, 100 is complete control

For `CCNC(=O)c1ccc(F)c(NC(=O)C2CN(C(C)(C)C)N=C2CC)c1` (centres unmarked) [Compound 336, 1-(1,1-dimethylethyl)-3-ethyl-N-[5-[(ethylamino)carbonyl]-2-fluorophenyl]-4,5-dihydro-1H-pyrazole-4-carboxamide], the “Plant response rating (0 to 100 scale), Crabgrass, Large” value (large crabgrass; [2]) was 90, the pest or weed control at 125 g/ha (large crabgrass; Digitaria sanguinalis, post-emergence, 125 g ai/ha, visual rating, scale 0 (no effect) to 100 (complete control), read-out: Crabgrass, Large plant response rating) was 20% and the pest or weed control at 500 g/ha (large crabgrass; Digitaria sanguinalis, post-emergence, postemergence, scale 0 to 100, 0 is no effect, 100 is complete control, read-out: Crabgrass, Large plant response rating) was 50%. It also gave a pest or weed control at 500 g/ha (large crabgrass; Digitaria sanguinalis, pre-emergence, visual rating, 0 = no effect, 100 = complete control, read-out: Plant response rating, Crabgrass, Large) of 100%, a pest or weed control at 125 g/ha (blackgrass; [3]) of 10% and a pest or weed control at 500 g/ha (blackgrass; [4]) of 20%. The pest or weed control at 1000 g/ha [1] was 80%, the plant injury at 1000 g/ha (rice) was 80% and the “Plant response rating (0 to 100 scale), Corn” value (corn; [2]) was 50. The plant injury at 125 g/ha (corn; Zea mays, post-emergence, 125 g ai/ha, visual rating, scale 0 (no effect) to 100 (complete control), read-out: Corn plant response rating) was 10%, the plant injury at 500 g/ha (corn; Zea mays, post-emergence, postemergence, 500 g ai/ha, scale 0 to 100, 0 is no effect, 100 is complete control, read-out: Corn plant response rating) was 20% and the Corn plant response rating (crop injury, 0 = no effect, 100 = complete kill) at 500 g/ha (corn; Zea mays, pre-emergence, 500 g ai/ha, visual rating, 0 = no effect, 100 = complete control) was 100%. For the same compound, the plant injury at 125 g/ha (wheat; [3]) was 0%, the plant injury at 500 g/ha (wheat; [4]) was 10% and the pest or weed control at 125 g/ha (wild oat; [3]) was 10%. For the same compound, the pest or weed control at 500 g/ha (wild oat; [4]) was 20%, the “Plant response rating (0 to 100 scale), Velvetleaf” value (velvetleaf; [2]) was 30 and the pest or weed control at 125 g/ha (velvetleaf; Abutilon theophrasti, post-emergence, 336 h, 125 g ai/ha, visual rating, scale 0 (no effect) to 100 (complete control), read-out: Velvetleaf plant response rating) was 20%. The pest or weed control at 500 g/ha (velvetleaf; Abutilon theophrasti, post-emergence, 336 h, postemergence, 500 g ai/ha, scale 0 to 100, 0 is no effect, 100 is complete control, read-out: Velvetleaf plant response rating) was 30%, the pest or weed control at 1000 g/ha (barnyardgrass) was 90% and the “Plant response rating (0 to 100 scale), Surinam Grass” value (Surinam grass; [2]) was 90. It also gave a pest or weed control at 125 g/ha (Surinam grass; Urochloa decumbens, post-emergence, 125 g ai/ha, visual rating, scale 0 (no effect) to 100 (complete control), read-out: Surinam Grass plant response rating) of 20%, a pest or weed control at 500 g/ha (Surinam grass; Urochloa decumbens, post-emergence, postemergence, scale 0 to 100, 0 is no effect, 100 is complete control, read-out: Surinam Grass plant response rating) of 20% and a pest or weed control at 500 g/ha (Surinam grass; Urochloa decumbens, pre-emergence, visual rating, 0 = no effect, 100 = complete control, read-out: Plant response rating, Surinam Grass) of 100%. The “Plant response rating (0 to 100 scale), Cocklebur” value (cocklebur; [2]) was 10, the pest or weed control at 125 g/ha (cocklebur; Xanthium strumarium, post-emergence, 125 g ai/ha, visual rating, scale 0 (no effect) to 100 (complete control), read-out: Cocklebur plant response rating) was 0% and the pest or weed control at 500 g/ha (cocklebur; Xanthium strumarium, post-emergence, postemergence, scale 0 to 100, 0 is no effect, 100 is complete control, read-out: Cocklebur plant response rating) was 50%. The pest or weed control at 500 g/ha (cocklebur; Xanthium strumarium, pre-emergence, visual rating, 0 = no effect, 100 = complete control, read-out: Plant response rating, Cocklebur) was 40%, the “Plant response rating (0 to 100 scale), Lambsquarters” value (lambsquarters; [2]) was 90 and the pest or weed control at 125 g/ha (lambsquarters; Chenopodium album, post-emergence, 336 h, 125 g ai/ha, visual rating, scale 0 (no effect) to 100 (complete control), read-out: Lambsquarters plant response rating) was 60%. The pest or weed control at 500 g/ha (lambsquarters; Chenopodium album, post-emergence, 336 h, postemergence, scale 0 to 100, 0 is no effect, 100 is complete control, read-out: Lambsquarters plant response rating) was 90%, the pest or weed control at 500 g/ha (lambsquarters; Chenopodium album, pre-emergence, 336 h, visual rating, 0 = no effect, 100 = complete control, read-out: Plant response rating, Lambsquarters) was 100% and the “Plant response rating (0 to 100 scale), Morningglory” value (morningglory; [2]) was 20. It also gave a pest or weed control at 125 g/ha (morningglory; Ipomoea, post-emergence, 336 h, 125 g ai/ha, visual rating, scale 0 (no effect) to 100 (complete control), read-out: Morningglory plant response rating) of 40%, a pest or weed control at 500 g/ha (morningglory; Ipomoea, post-emergence, 336 h, postemergence, scale 0 to 100, 0 is no effect, 100 is complete control, read-out: Morningglory plant response rating) of 70% and a pest or weed control at 500 g/ha (morningglory; Ipomoea, pre-emergence, 336 h, visual rating, 0 = no effect, 100 = complete control, read-out: Plant response rating, Morningglory) of 70%. The “Plant response rating (0 to 100 scale), Pigweed” value (pigweed; [2]) was 100, the pest or weed control at 125 g/ha (pigweed; Amaranthus retroflexus, post-emergence, 336 h, 125 g ai/ha, visual rating, scale 0 (no effect) to 100 (complete control), read-out: Pigweed plant response rating) was 60% and the pest or weed control at 500 g/ha (pigweed; Amaranthus retroflexus, post-emergence, 336 h, postemergence, scale 0 to 100, 0 is no effect, 100 is complete control, read-out: Pigweed plant response rating) was 70%. The pest or weed control at 500 g/ha (pigweed; Amaranthus retroflexus, pre-emergence, 336 h, visual rating, 0 = no effect, 100 = complete control, read-out: Plant response rating, Pigweed) was 100%, the “Plant response rating (0 to 100 scale), Foxtail, Giant” value (giant foxtail; [2]) was 60 and the pest or weed control at 125 g/ha (giant foxtail; Setaria faberi, post-emergence, 336 h, 125 g ai/ha, visual rating, scale 0 (no effect) to 100 (complete control), read-out: Foxtail, Giant plant response rating) was 20%. It also gave a pest or weed control at 500 g/ha (giant foxtail; Setaria faberi, post-emergence, 336 h, postemergence, scale 0 to 100, 0 is no effect, 100 is complete control, read-out: Foxtail, Giant plant response rating) of 40% and a pest or weed control at 500 g/ha (giant foxtail; Setaria faberi, pre-emergence, 336 h, visual rating, 0 = no effect, 100 = complete control, read-out: Plant response rating, Foxtail, Giant) of 100%.
